Experimental data: patent US9932341B2, “Use of pyrazolopyrimidine derivatives for the treatment of PI3K-delta related disorders” (Incyte Corporation, priority 2013, dated 2018)
Counter-ions that a name gives are not always drawn.

Each molecule was assayed against PI3Kδ (p110δ/p85α) (Homo sapiens (Human), UniProt O00329) (assay: PI3Kδ Scintillation Proximity Assay (Example A3)). Conditions: 20 μM ATP, 20 μM PIP2, 4 nM PI3Kδ, read-out: PI3Kδ SPA IC50.
Sequence of PI3Kδ (p110δ/p85α) (O00329 whole entry): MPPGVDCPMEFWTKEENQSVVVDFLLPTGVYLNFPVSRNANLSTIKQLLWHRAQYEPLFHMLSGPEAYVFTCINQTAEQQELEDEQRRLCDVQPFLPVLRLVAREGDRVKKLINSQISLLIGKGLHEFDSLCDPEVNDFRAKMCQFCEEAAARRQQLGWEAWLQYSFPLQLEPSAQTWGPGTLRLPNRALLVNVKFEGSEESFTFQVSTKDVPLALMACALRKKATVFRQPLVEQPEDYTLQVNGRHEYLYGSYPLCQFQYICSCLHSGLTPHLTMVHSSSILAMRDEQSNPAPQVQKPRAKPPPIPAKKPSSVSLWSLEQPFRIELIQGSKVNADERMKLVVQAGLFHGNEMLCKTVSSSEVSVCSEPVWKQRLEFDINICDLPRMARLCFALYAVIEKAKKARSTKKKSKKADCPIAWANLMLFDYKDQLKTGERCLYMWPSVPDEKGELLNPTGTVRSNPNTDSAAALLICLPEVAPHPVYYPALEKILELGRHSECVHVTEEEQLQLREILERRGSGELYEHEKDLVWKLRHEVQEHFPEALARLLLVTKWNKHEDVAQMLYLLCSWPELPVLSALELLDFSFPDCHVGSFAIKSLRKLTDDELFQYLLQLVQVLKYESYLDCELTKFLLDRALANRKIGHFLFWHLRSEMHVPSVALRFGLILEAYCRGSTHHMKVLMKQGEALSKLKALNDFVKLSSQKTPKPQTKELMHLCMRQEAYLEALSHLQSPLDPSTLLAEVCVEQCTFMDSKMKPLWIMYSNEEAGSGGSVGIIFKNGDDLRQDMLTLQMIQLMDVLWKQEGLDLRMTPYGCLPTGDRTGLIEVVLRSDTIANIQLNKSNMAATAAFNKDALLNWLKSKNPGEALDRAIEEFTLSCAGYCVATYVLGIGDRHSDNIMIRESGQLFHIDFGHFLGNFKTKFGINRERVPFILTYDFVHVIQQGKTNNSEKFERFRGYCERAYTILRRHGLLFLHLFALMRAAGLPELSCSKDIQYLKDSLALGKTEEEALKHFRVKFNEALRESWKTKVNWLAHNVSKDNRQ
Sequence of PI3Kδ (p110δ/p85α) (P27986 whole entry partner): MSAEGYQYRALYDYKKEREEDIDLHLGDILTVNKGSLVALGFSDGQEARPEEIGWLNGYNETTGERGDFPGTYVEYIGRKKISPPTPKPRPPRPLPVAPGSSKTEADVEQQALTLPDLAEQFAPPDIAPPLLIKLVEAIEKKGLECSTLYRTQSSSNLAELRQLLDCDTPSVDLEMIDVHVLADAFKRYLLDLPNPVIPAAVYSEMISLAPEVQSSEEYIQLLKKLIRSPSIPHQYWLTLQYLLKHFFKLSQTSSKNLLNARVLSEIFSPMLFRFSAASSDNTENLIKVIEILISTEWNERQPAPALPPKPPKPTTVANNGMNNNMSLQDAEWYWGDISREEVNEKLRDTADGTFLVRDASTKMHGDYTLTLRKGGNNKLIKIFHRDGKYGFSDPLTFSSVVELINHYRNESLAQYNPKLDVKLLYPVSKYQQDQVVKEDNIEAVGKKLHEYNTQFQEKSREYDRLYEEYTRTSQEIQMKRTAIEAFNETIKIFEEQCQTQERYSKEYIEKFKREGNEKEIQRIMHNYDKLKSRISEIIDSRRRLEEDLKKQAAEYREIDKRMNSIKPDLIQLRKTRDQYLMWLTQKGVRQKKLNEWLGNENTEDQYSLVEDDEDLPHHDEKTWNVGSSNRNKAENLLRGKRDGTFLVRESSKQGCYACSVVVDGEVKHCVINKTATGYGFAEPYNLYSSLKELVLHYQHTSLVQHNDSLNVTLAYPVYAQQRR
Format: biochemical
Experimental: [γ-^33P]ATP (10 mCi/mL) was purchased from PerkinElmer (Waltham, Mass.). […] PI3Kδ (p110δ/p85α) was purchased from Millipore (Bedford, Mass.). ATP, MgCl2, DTT, EDTA, MOPS and CHAPS were purchased from Sigma-Aldrich (St. Louis, Mo.). Wheat Germ Agglutinin (WGA) YSi SPA Scintillation Beads was purchased from GE healthcare life sciences (Piscataway, N.J.).
The kinase reaction was conducted in polystyrene 384-well matrix white plate from Thermo Fisher Scientific in a final volume of 25 μL. Inhibitors were first diluted serially in DMSO and added to the plate wells before the addition of other reaction components. The final concentration of DMSO in the assay was 0.5%. The PI3K assays were carried out at room temperature in 20 mM MOPS, pH 6.7, 10 mM MgCl2, 5 mM DTT and CHAPS 0.03%. Reactions were initiated by the addition of ATP, the final reaction mixture consisted of 20 μM PIP2, 20 μM ATP, 0.2 μCi [γ-^33P] ATP, 4 nM PI3Kδ. […] 25 mM EDTA, 400 μM ATP. The final concentration of SPA beads was 1.0 mg/mL. After the plate sealing, plates were shaken overnight at room temperature and centrifuged at 1800 rpm for 10 minutes, the radioactivity of the product was determined by scintillation counting on Topcount (PerkinElmer). IC50 determination was performed by fitting the curve of percent control activity versus the log of the inhibitor concentration using the GraphPad Prism 3.0 software.
In the case of `COc1c(C(C)n2nc(C)c3c(N)ncnc32)cc(Cl)c(C)c1-c1ccc(C(=O)N(C)C)nc1` (centres unmarked) [Example 11, 5-{3-[1-(4-Amino-3-methyl-1H-pyrazolo[3,4-d]pyrimidin-1-yl)ethyl]-5-chloro-2-methoxy-6-methylphenyl}-N,N-dimethylpyridine-2-carboxamide bis(trifluoroacetate)], the IC50 is reported as under 10 nM. In the case of `CCOc1c(C(C)n2cc(C)c3c(N)ncnc32)cc(Cl)c(C#N)c1C1CN(C(C)C)C1` (single isomer, unassigned) [Example 307, 4-[1-(4-Amino-5-methyl-7H-pyrrolo[2,3-d]pyrimidin-7-yl)ethyl]-6-chloro-3-ethoxy-2-(1-isopropylazetidin-3-yl)benzonitrile], the IC50 is reported as under 10 nM. `COc1c(C(C)n2nc(C)c3c(N)ncnc32)cc(Cl)c(C)c1C1CNC(=O)CO1` (single isomer, unassigned) [324 (2nd peak), 6-{3-[1-(4-Amino-3-methyl-1H-pyrazolo[3,4-d]pyrimidin-1-yl)ethyl]-5-chloro-2-methoxy-6-methylphenyl}morpholin-3-one] showed an IC50 of under 10 nM. In the case of `CCOc1c(C(C)n2nc(C)c3c(N)ncnc32)cc(Cl)c(C)c1-c1ccc(C(=O)N(C)C)nc1` (centres unmarked) [Example 14, 5-{3-[1-(4-Amino-3-methyl-1H-pyrazolo[3,4-d]pyrimidin-1-yl)ethyl]-5-chloro-2-ethoxy-6-methylphenyl}-N,N-dimethylpyridine-2-carboxamide bis(trifluoroacetate)], the IC50 is reported as under 10 nM. With `COc1c(C(C)n2nc(C)c3c(N)ncnc32)cc(Cl)c(C)c1C1CNC(=O)O1` (centres unmarked) [Example 325, 5-{3-[1-(4-Amino-3-methyl-1H-pyrazolo[3,4-d]pyrimidin-1-yl)ethyl]-5-chloro-2-methoxy-6-methylphenyl}-1,3-oxazolidin-2-one] the IC50 was under 10 nM. `CCOc1c(C(C)n2nc(C)c3c(N)ncnc32)cc(Cl)c(F)c1C1CN(CC(C)(C)O)C1` (racemic) [Example 140, 1-(3-{3-[1-(4-Amino-3-methyl-1H-pyrazolo[3,4-d]pyrimidin-1-yl)ethyl]-5-chloro-2-ethoxy-6-fluorophenyl}azetidin-1-yl)-2-methylpropan-2-ol] was tested, and the IC50 was under 10 nM. In the case of `CCOc1c(C(C)n2nc(C)c3c(N)ncnc32)cc(Cl)c(C#N)c1C1CN(C(C)(C)CO)C1` (single isomer, unassigned) [Example 237, 4-[1-(4-Amino-3-methyl-1H-pyrazolo[3,4-d]pyrimidin-1-yl)ethyl]-6-chloro-3-ethoxy-2-[1-(2-hydroxy-1,1-dimethylethyl)azetidin-3-yl]benzonitrile], the IC50 is reported as under 10 nM. `COc1c(C(C)n2nc(C)c3c(N)ncnc32)cc(Cl)c(C)c1C1CN(CC(F)(F)F)C1` (single isomer, unassigned) [Example 108, 1-(1-{5-Chloro-2-methoxy-4-methyl-3-[1-(2,2,2-trifluoroethyl)azetidin-3-yl]phenyl}ethyl)-3-methyl-1H-pyrazolo[3,4-d]pyrimidin-4-amine] showed an IC50 of under 10 nM. For `CCOc1c(C(C)n2nc(C)c3c(N)ncnc32)cc(Cl)c(F)c1C1CN(C[C@H](C)O)C1` (stereo partly drawn) [Example 149, (2S)-1-(3-{3-[1-(4-Amino-3-methyl-1H-pyrazolo[3,4-d]pyrimidin-1-yl)ethyl]-5-chloro-2-ethoxy-6-fluorophenyl}azetidin-1-yl)propan-2-ol], the IC50 was under 10 nM. For `CCC(=O)N1CC(c2c(C)c(Cl)cc(C(C)n3nc(C)c4c(N)ncnc43)c2OC)C1` (centres unmarked) [Example 3, 1-{1-[5-Chloro-2-methoxy-4-methyl-3-(1-propionylazetidin-3-yl)phenyl]ethyl}-3-methyl-1H-pyrazolo[3,4-d]pyrimidin-4-amine trifluoroacetate], the IC50 was under 10 nM. `CCOc1c(C(C)n2nc(C)c3c(N)ncnc32)cc(Cl)c(F)c1C1COC(=O)N1` (single isomer, unassigned) [Example 354, 4-{3-[1-(4-amino-3-methyl-1H-pyrazolo[3,4-d]pyrimidin-1-yl)ethyl]-5-chloro-2-ethoxy-6-fluorophenyl}-1,3-oxazolidin-2-one] gave an IC50 of under 10 nM. In the case of `COc1c(C(C)n2nc(C)c3c(N)ncnc32)cc(Cl)c(C#N)c1C1CNC1` (single isomer, unassigned) [Example 261, 4-[1-(4-Amino-3-methyl-1H-pyrazolo[3,4-d]pyrimidin-1-yl)ethyl]-2-azetidin-3-yl-6-chloro-3-methoxybenzonitrile], the IC50 is reported as under 10 nM. `COc1c(C(C)n2nc(C)c3c(N)ncnc32)cc(Cl)c(F)c1C1CN(CCO)C1` (racemic) [Example 71, 2-(3-{3-[1-(4-Amino-3-methyl-1H-pyrazolo[3,4-d]pyrimidin-1-yl)ethyl]-5-chloro-6-fluoro-2-methoxyphenyl}azetidin-1-yl)ethanol] showed an IC50 of under 10 nM. `CCOc1c(C(C)n2nc(C)c3c(N)ncnc32)cc(Cl)c(C#N)c1N1CC(OC)C1` (racemic) [Example 319, 4-[1-(4-amino-3-methyl-1H-pyrazolo[3,4-d]pyrimidin-1-yl)ethyl]-6-chloro-3-ethoxy-2-(3-methoxyazetidin-1-yl)benzonitrile] was tested, and the IC50 was under 10 nM. For `CCOc1c(C(C)n2nc(C)c3c(N)ncnc32)cc(Cl)c(F)c1C1CN(C(C)C)C1` (stereo not drawn) [139 (1st peak), 1-{1-[5-Chloro-2-ethoxy-4-fluoro-3-(1-isopropylazetidin-3-yl)phenyl]ethyl}-3-methyl-1H-pyrazolo[3,4-d]pyrimidin-4-amine], the IC50 was under 10 nM. With `COc1c([C@H](C)n2nc(C)c3c(N)ncnc32)cc(Cl)c(C#N)c1C1CN(C[C@@H](C)O)C1` [Example 362] the IC50 was under 10 nM. For `CCOc1c(C(C)n2nc(C)c3c(N)ncnc32)cc(Cl)c(C#N)c1C1CN(C)C1` (single isomer, unassigned) [Example 213, 4-[1-(4-Amino-3-methyl-1H-pyrazolo[3,4-d]pyrimidin-1-yl)ethyl]-6-chloro-3-ethoxy-2-(1-methylazetidin-3-yl)benzonitrile], the IC50 was under 10 nM. In the case of `COc1c(C(C)n2nc(C)c3c(N)ncnc32)cc(Cl)c(C)c1C1CN(C2(CC#N)CCC2)C1` (single isomer, unassigned) [Example 161, [1-(3-{3-[1-(4-Amino-3-methyl-1H-pyrazolo[3,4-d]pyrimidin-1-yl)ethyl]-5-chloro-2-methoxy-6-methylphenyl}azetidin-1-yl)cyclobutyl]acetonitrile], the IC50 is reported as under 10 nM. For `COc1c(C(C)n2nc(C)c3c(N)ncnc32)cc(Cl)c(C)c1-c1ccnc(C(=O)NCCO)c1` (racemic) [Example 18, 4-{3-[1-(4-Amino-3-methyl-1H-pyrazolo[3,4-d]pyrimidin-1-yl)ethyl]-5-chloro-2-methoxy-6-methylphenyl}-N-(2-hydroxyethyl)pyridine-2-carboxamide], the IC50 was under 10 nM. Molecule `COCCN1CC(c2c(C)c(Cl)cc(C(C)n3nc(C)c4c(N)ncnc43)c2OC)C1` (racemic) [Example 9, 1-(1-{5-Chloro-2-methoxy-3-[1-(2-methoxyethyl)azetidin-3-yl]-4-methylphenyl}ethyl)-3-methyl-1H-pyrazolo[3,4-d]pyrimidin-4-amine] has an IC50 of under 10 nM. Molecule `COc1c(C(C)n2nc(C)c3c(N)ncnc32)cc(Cl)c(C#N)c1C1CN(C(=O)NC(C)(C)C)C1` (single isomer, unassigned) [Example 292, 3-{3-[1-(4-Amino-3-methyl-1H-pyrazolo[3,4-d]pyrimidin-1-yl)ethyl]-5-chloro-6-cyano-2-methoxyphenyl}-N-(tert-butyl)azetidine-1-carboxamide] has an IC50 of under 10 nM. Molecule `CCOc1c(C(C)n2nc(C)c3c(N)ncnc32)cc(Cl)c(C)c1C1CN(C(C)C)C1` (single isomer, unassigned) [Example 94, 1-{1-[5-Chloro-2-ethoxy-3-(1-isopropylazetidin-3-yl)-4-methylphenyl]ethyl}-3-methyl-1H-pyrazolo[3,4-d]pyrimidin-4-amine bis(trifluoroacetate)] has an IC50 of under 10 nM. Molecule `CNC(=O)c1cc(-c2c(C)c(Cl)cc(C(C)n3nc(C)c4c(N)ncnc43)c2OC)ccn1` (racemic) [Example 17, 4-(3-(1-(4-amino-3-methyl-1H-pyrazolo[3,4-c]pyrimidin-1-yl)ethyl)-5-chloro-2-methoxy-6-methylphenyl)-N-methylpicolinamide] has an IC50 of under 10 nM. `Cc1c(Cl)cc(C(C)n2nc(C)c3c(N)ncnc32)c(OCC(F)F)c1-c1ccc(C(=O)N(C)C)nc1` (single isomer, unassigned) [Example 189, 5-(3-(1-(4-Amino-3-methyl-1H-pyrazolo[3,4-d]pyrimidin-1-yl)ethyl)-5-chloro-2-(2,2-difluoroethoxy)-6-methylphenyl)-N,N-dimethylpicolinamide bis(2,2,2-trifluoroacetate)] was tested, and the IC50 was under 10 nM. In the case of `COc1c(C(C)n2nc(C)c3c(N)ncnc32)cc(Cl)c(C)c1C1CN(C)C1` (racemic) [Example 5, 1-{1-[5-chloro-2-methoxy-4-methyl-3-(1-methylazetidin-3-yl)phenyl]ethyl}-3-methyl-1H-pyrazolo[3,4-d]pyrimidin-4-amine], the IC50 is reported as under 10 nM. `CCOc1c(C(C)n2nc(C)c3c(N)ncnc32)cc(Cl)c(C#N)c1-c1ccc(C(=O)N(C)C)nc1` (racemic) [Example 44, 5-(3-(1-(4-amino-3-methyl-1H-pyrazolo[3,4-d]pyrimidin-1-yl)ethyl)-5-chloro-6-cyano-2-ethoxyphenyl)-N,N-dimethylpicolinamide] gave an IC50 of under 10 nM.
